Data on eleven compounds can be found in patent US12286423B2, “Antiviral 1,3-di-oxo-indene compounds” (Novartis AG, priority 2020, dated 2025).

As a reminder, the EC50 is the concentration giving half of the maximal effect. High values mean lower potency in that assay, low ones higher potency in that assay. What is called CC50 is the concentration giving 50% cytotoxicity.

What all share (assay type): cell-based
In one series the test system is C15_C3 REPLICON
Description: C15_C3 replicon assay. (A replicon is a self-replicating genome or part of one, used to study replication in cells.)

The nature of series [1]: Cytotoxicity (CC50) in mock-infected cells, MTT assay. The following applies: human, HeLa cells (mock-infected), 50% cytotoxic concentration, read-out: CYTOTOX (CC50 μM). The procedure:
(§1) For HeLa cells, the drugs were measured for EC50 (50% maximal effective concentration), which is the concentration of a drug inducing a response halfway between the baseline and maximum, using an MTT assay. With regard to RD and MRC-5 cells, CPE was determined using FDA (Fluorescein diacetate) or MTT. In order to determine the effect of drug toxicity on efficacy results, at the time of inoculation with the virus, mock-infection was also included. A virus-free medium was added to a cell culture, which was then subjected to the same treatment as the mock-infected cells inoculated with the virus. That is, the medium was removed after one hour of incubation, and dilutions of drugs in the medium were added once more. Following incubation for 2-3 days, the cells were observed under a microscope and the drugs were determined for CC50 (50% cytotoxic concentration) at which 50% of the cells were killed, using an MTT assay in which counts of viable cells in mock-infected wells containing drugs were compared to those of viable cells in control wells containing no drugs. In an FDA hydrolysis assay, FDA was added to each well after removal of the medium, and incubated for 20-30 min before fluorescence intensity was measured using a spectrofluorometer to determine CPE in the same manner as in MTT.
That is, the survival rate (% survival) of mock-infected cells for cytotoxicity measurement was calculated using the Mathematical Formula 1 below: Cell Drug=Survival by [A(Drug)−A(Background solution)/A(Cell control)−A(Background×100% Solution)]
While 100% cell survival means no cytotoxicity of the drug, the highest cytotoxicity is reflected by 0% cell survival. The 50% cytotoxic concentration was defined as the concentration required to reduce the cell number by 50%. This concentration of the drug is represented as CC50. Higher values mean lower cytotoxicity. […]
In Mathematical Formulae 3 and 4 above, • OD (CC) represents the OD of the background cell culture that is neither induced by a virus nor treated by chemical, • OD (VC) represents the OD of the control cell culture that is induced by a virus but not treated by chemical, • OD (Virus+Compound) represents the OD of the cell culture infected by a virus that has been treated with a concentrated compound, • OD (Compound) represents the OD of the cell culture that has been treated with a concentrated compound only, and • OD (Blank) represents the OD of the well to which only the cell culture has been added.
The effective concentration (EC50) represents the concentration of a drug at which 50% of cells are allowed to survive by CPE of an induced virus, and the cytotoxicity concentration (CC50) represents the concentration of a drug at which a compound has killed 50% of cells, and they were calculated by the logarithmic interpolation.
For orientation: Tetrazolium assays rely on reduction of a dye to a coloured formazan, in cell work by metabolically active cells.

In another series the test system is HRV B14. Description: HRV B14 CPE inhibition assay. Particulars: Human rhinovirus sp.; HRV B14, cytopathic effect inhibition. The protocol: (§2) Bioactivity of the Compounds of the Invention was Determined Using the Following Methods. Determination of Drug Efficacy Against Picornaviruses Using Cytopathic Effect (CPE) Inhibition Assay
(§3) In the assay, HeLa (human cervical cancer cells), MRC-5 (human fetal lung fibroblast cells), and RD cells (derived from human rhabdomyosarcoma) were employed. For comparison, ribavirin (Riv), Pleconaril (pleco), and […] (BTA) were used as controls. Reagents were dissolved at a concentration of 10-40 mg/ml in 100% dimethyl sulfoxide (DMSO). Water-soluble reagents were dissolved in PBS (−) solution and stored at −20° C. On the day of the experiment, they were used in 3 fold to 5 fold concentrations in such a manner that the concentration of dimethyl sulfoxide in each well was between 0.5% and 1%.
(§4) Pharmaceutical efficacy was determined using a virus-induced cytopathic effect (CPE) inhibition assay. In this regard, after cells suitable for viruses were grown in 96-well plates, dilutions of viruses in DME supplemented with 2% FBS (DME/2% FBS) or MEM supplemented with 2% FBS (MEM/2% FBS) were inoculated in an amount of […] with a concentration corresponding to 100 CCID50 (50% cell culture infective dose) into each well of the plates, and incubated for 30 min-1 hr at 33° C. or 37° C. to allow the viruses to adsorb onto the cells. The culture medium was removed before aliquots of drug dilutions with various concentrations were added in an amount of 100 μl to each well. While HRV (human rhinovirus) was grown at 33° C., the other viruses were incubated in a 37° C. CO2 incubator for 2-3 days. Alternatively, the cells were cultured for 2-3 days without removal of the medium after they were added with 50 μl of each drug dilution having a 2-fold higher concentration and then with 50 μl of the virus dilution. Viruses were incubated in host HeLa cells at 37° C. for 2-3 days in DME/2% or MEM/2% FBS.
as §1
(§5) In addition, antiviral effects can be calculated using Mathematical Formula 2 below: Antiviral Effect=[A(Drug/Virus)−A(Virus Control)/A(Cell control)−A(Virus Control)]
(§6) If the survival rate is 100%, its antiviral effect is 100% whereas if the survival rate is 0%, its antiviral effect is none. […]
(§7) Specifically, cells grown to confluence in 96-well plates were infected with 100 50% cell culture infected doses (CCID50) of virus. After an adsorption period of 2 hrs at 37° C., the virus was removed and serial dilutions of the compounds were added. […] After removal of the medium, 90 μl of a culture medium and 10 μl of MTS-phenazine methosulfate (Promega, Leiden, The Netherlands) were added to each well. […]
For orientation: Cytopathic effects are the visible damage that an infection or toxin causes in cultured cells.

The next series deals with HRV A16. Description: HRV A16 CPE inhibition assay. The following applies: Human rhinovirus sp.; HRV A16, cytopathic effect inhibition. The procedure: as §2, §3, §4, §1, §5, §6, §7
Another series relates to HRV A29. The series is described as follows: HRV A29 CPE inhibition assay. The following applies: Human rhinovirus sp.; HRV A29, cytopathic effect inhibition. The protocol:
as §2, §3, §4, §1, §5, §6, §7

SMILES strings stand for the structures.

For the compound `C[C@H](O)[C@@H](C(=O)NC12C(=O)c3c(N)cccc3C1(O)Oc1cc([C@H](C)C3CC3)ccc12)N(C)C` (stereo partly drawn) [Example 10, (2S,3S)—N-(1-amino-7-((R)-1-cyclopropylethyl)-4b-hydroxy-10-oxo-4b,10-dihydro-9bH-indeno[1,2-b]benzofuran-9b-yl)-2-(dimethylamino)-3-hydroxybutanamide], the figures for the EC50 in the series with C15_C3 REPLICON, in the series on HRV B14 and in the series on HRV A16 were 0.632 µM, 0.016 µM and 0.661 µM, respectively. Also, the CC50 in series [1] stood at 29.2 µM.

As for `Cc1c(S(C)(=O)=O)c[nH]c1C(=O)NC12C(=O)c3c(N)cccc3C1(O)Oc1cc(C3CCC3C)ccc12` (centres unmarked) [Example 7, N-(1-amino-4b-hydroxy-7-(2-methylcyclobutyl)-10-oxo-4b,10-dihydro-9bH-indeno[1,2-b]benzofuran-9b-yl)-3-methyl-4-(methylsulfonyl)-1H-pyrrole-2-carboxamide], the EC50 in the series with C15_C3 REPLICON came to 1.62 µM; with HRV A16 it was 0.065 µM. For the same compound, the CC50 in series [1] came out at 12 µM.

Turning to `Cc1cc(S(=O)(=O)N2CC[C@H](N(C)C)C2)[nH]c1C(=O)NC12C(=O)c3c(N)cccc3C1(O)Oc1cc([C@H]3C[C@@H]3C)ccc12` (mixture of isomers) [Example 11, N-(1-amino-4b-hydroxy-7-((1S,2S)-2-methylcyclopropyl)-10-oxo-4b,10-dihydro-9bH-indeno[1,2-b]benzofuran-9b-yl)-5-(((S)-3-(dimethylamino)pyrrolidin-1-yl)sulfonyl)-3-methyl-1H-pyrrole-2-carboxamide], the figures for the EC50 with C15_C3 REPLICON, with HRV B14 and with HRV A16 were 2.54 µM, 0.016 µM and 0.023 µM, respectively. Also, in series [1], the CC50 came to 12.1 µM.

Take `C[C@@H]1C[C@@H]1c1ccc2c(c1)O[C@]1(O)c3cccc(N)c3C(=O)[C@]21NC(=O)CN1CCC1` [Example 2, N-((4bR,9bR)-1-amino-4b-hydroxy-7-((1S,2R)-2-methylcyclopropyl)-10-oxo-4b,10-dihydro-9bH-indeno[1,2-b]benzofuran-9b-yl)-2-(azetidin-1-yl)acetamide]: the EC50 with C15_C3 REPLICON is 0.853 µM; with HRV B14, 0.016 µM; in the series on HRV A16, 0.092 µM. The half-maximal cytotoxic concentration (CC50) in series [1] came to 27.3 µM.

With `Cc1c(S(C)(=O)=O)c[nH]c1C(=O)NC12C(=O)c3c(N)cccc3C1(O)Oc1cc([C@]3(C)C[C@@H]3C)ccc12` (stereo partly drawn) [Example 6, N-(1-amino-7-((1R,2S)-1,2-dimethylcyclopropyl)-4b-hydroxy-10-oxo-4b,10-dihydro-9bH-indeno[1,2-b]benzofuran-9b-yl)-3-methyl-4-(methylsulfonyl)-1H-pyrrole-2-carboxamide], the figures for the EC50 with C15_C3 REPLICON, with HRV B14 and in the series with HRV A16 were 1.18 µM, 0.016 µM and 0.046 µM, respectively. Moreover, the CC50 in series [1] stood at 19.1 µM.

In the case of `Cc1c(S(C)(=O)=O)c[nH]c1C(=O)NC12C(=O)c3c(N)cccc3C1(O)Oc1cc([C@@H]3C[C@@H]3C)ccc12` (stereo partly drawn) [Example 16, N-(1-amino-4b-hydroxy-7-((1R,2S)-2-methylcyclopropyl)-10-oxo-4b,10-dihydro-9bH-indeno[1,2-b]benzofuran-9b-yl)-3-methyl-4-(methylsulfonyl)-1H-pyrrole-2-carboxamide], the EC50 was 1.82 µM with C15_C3 REPLICON, 0.104 µM in the series on HRV A29, 0.016 µM in the series with HRV B14 and 0.199 µM in the series with HRV A16. Further, the CC50 in series [1] worked out at 37.7 µM.

With `Cc1c(C(=O)NC23C(=O)c4c(N)cccc4C2(O)Oc2cc(C(C)C)ccc23)[nH]c(S(=O)(=O)NCCN(C)C)c1C` (centres unmarked) [Example 4, N-(1-amino-4b-hydroxy-7-isopropyl-10-oxo-4b,10-dihydro-9bH-indeno[1,2-b]benzofuran-9b-yl)-5-(N-(2-(dimethylamino)ethyl)sulfamoyl)-3,4-dimethyl-1H-pyrrole-2-carboxamide], the EC50 stood at 2.39 µM in the series on C15_C3 REPLICON, 0.016 µM in the series on HRV B14 and 0.056 µM with HRV A16. Also, in series [1], the CC50 was 8.58 µM.

As for `C[C@H](c1ccc2c(c1)O[C@]1(O)c3cccc(N)c3C(=O)[C@]21NC(=O)[C@H]([C@H](C)O)N(C)C)C1CC1` [Example 15, (2S,3S)—N-((4bR,9bR)-1-amino-7-((S)-1-cyclopropylethyl)-4b-hydroxy-10-oxo-4b,10-dihydro-9bH-indeno[1,2-b]benzofuran-9b-yl)-2-(dimethylamino)-3-hydroxybutanamide], the EC50 in the series on C15_C3 REPLICON is 0.264 µM; in the series on HRV B14 it was 0.016 µM; in the series with HRV A16, 0.213 µM. The CC50 in series [1] is 45.2 µM.

Turning to `Cc1[nH]c(C(=O)NC23C(=O)c4c(N)cccc4C2(O)Oc2cc(C(C)C)ccc23)c(C)c1S(N)(=O)=O` (centres unmarked) [Example 25, N-(1-amino-4b-hydroxy-7-isopropyl-10-oxo-4b,10-dihydro-9bH-indeno[1,2-b]benzofuran-9b-yl)-3,5-dimethyl-4-sulfamoyl-1H-pyrrole-2-carboxamide], the concentration for a half-maximal effect (EC50) with C15_C3 REPLICON worked out at 2.04 µM; in the series with HRV B14 it was 0.016 µM; in the series on HRV A16 it was 0.14 µM. In addition, the CC50 in series [1] stood at 27 µM.

On to `Cc1cc(S(=O)(=O)N2CCN(C)CC2)[nH]c1C(=O)NC12C(=O)c3c(N)cccc3C1(O)Oc1cc([C@H]3C[C@@H]3C)ccc12` (mixture of isomers) [Example 9, N-(1-Amino-4b-hydroxy-7-((trans)-2-methylcyclopropyl)-10-oxo-4b,10-dihydro-9bH-indeno[1,2-b]benzofuran-9b-yl)-3-methyl-5-((4-methylpiperazin-1-yl)sulfonyl)-1H-pyrrole-2-carboxamide], for which the EC50 worked out at 1.09 µM in the series on C15_C3 REPLICON, 0.016 µM in the series with HRV B14 and 0.02 µM in the series with HRV A16. Further, in series [1], the CC50 worked out at 25.6 µM.

`CCC(C)c1ccc2c(c1)OC1(O)c3cccc(N)c3C(=O)C21NC(=O)c1[nH]cc(S(C)(=O)=O)c1C` (centres unmarked) [Example 23, N-(1-amino-7-(sec-butyl)-4b-hydroxy-10-oxo-4b,10-dihydro-9bH-indeno[1,2-b]benzofuran-9b-yl)-3-methyl-4-(methylsulfonyl)-1H-pyrrole-2-carboxamide]: the results for the EC50 with C15_C3 REPLICON, in the series on HRV B14 and with HRV A16 were 0.633 µM, 0.016 µM and 0.071 µM, respectively. For the same compound, the cytotoxic concentration (CC50) in series [1] was 22.4 µM.
